According to patent publication US4921504A, “4-(N-ethyl-N-2-hydroxyethyl)-amino-1-(2 hydroxyethyl)-amino-2-nitrobenzene and compositions for dyeing hair containing the same” (Wella Aktiengesellschaft, priority 1984, dated 1990):
Values after ≈ are worked out from the molar mass of the structure shown. Read-outs that look alike come from different tables or passages of the source.

Experiments:
[1] = solubility in water; format: physicochemical
Text: In view of the foregoing, it was most surprising to find the blue nitro dye (compound I), being an isomer of compound III and a homologue of compound VI, has sufficiently different characteristics which cannot be derived from known compounds III, IV, V or VI. The dye (I) in accordance with the present invention has a solubility of about 1.0% in water which facilitates the acquisition of dark shades considerably, particularly, in comparison with compound III. […] Rather, an oil is formed from which the dye can later be supplied during the dyeing process. The alternative of redissolving formed crystals would take too much time and, as a result, such crystals would not, again, be available during the dyeing process.

[2] = Ames test; format: cell-based
[3] = system: yeast cell; assay: yeast cell-mutagenity test; format: cell-based
Text: 2. yeast cell-mutagenity test

[4] = system: mouse-lymphoma; assay: mouse-lymphoma-assay; format: cell-based
[5] = system: human-lymphocyte; assay: human-lymphocyte-test; format: cell-based
[6] = LD50 (toxicity); details: in vivo
[7] = skin compatibility
[8] = storage stability of dyes; format: physicochemical; details: in dye compositions
[9] = light genuiness; format: physicochemical; details: nitro dyes containing compound I
[10] = general toxicological safety; details: compared with compounds II through VI
[11] = prior-art compound, cited from earlier work
[12] = prior-art compound; cited from earlier work
[13] = prior-art compound; doubts recently raised regarding safe use; cited from earlier work
[14] = in water without also having to dissolve intermediaries (III)

With `CCN(CCO)c1ccc(NCCO)c([N+](=O)[O-])c1` [Compound I, 4-(N-ethyl-N-2'-hydroxyethyl)-amino-1-(2"-hydroxyethyl)-amino-2-nitrobenzene] as the compound, how does the “behaviour when exceeding solubility” value ([1]; exceeding solubility, an oil is formed) read?
The value was “does not crystallize”.

And the solubility ([1]; in water)?
The solubility was ~10000 µg/mL (≈ 37.1 mM).

What about the “mutagenicity in Ames test” value [2] of the same compound?
Its value is “not mutagenic”.

What about the “mutagenicity in yeast cell-mutagenity test” value [3] of the same compound?
The value was “not mutagenic”.

What about the mutagenicity in mouse-lymphoma-assay [4] of the same compound?
Its mutagenicity in mouse-lymphoma-assay is “not mutagenic”.

What about the mutagenicity in human-lymphocyte-test [5] of the same compound?
The mutagenicity in human-lymphocyte-test was “not mutagenic”.

And the LD50 [6]?
The LD50 was ~2000 mg/kg.

And the skin compatibility [7]?
Its skin compatibility is “good skin compatibility”.

What about the storage stability [8] of the same compound?
Its storage stability is “extraordinary”.

What about the light genuiness [9] of the same compound?
Its light genuiness is “very good”.

And the toxicological safety [10]?
The toxicological safety was “safe”.

Which solubility in water [11, 14] does the source give for `CCNc1ccc(N(CCO)CCO)cc1[N+](=O)[O-]` [III] here?
The solubility in water was “below 0.15%”.

With `O=[N+]([O-])c1cc(N(CCO)CCO)ccc1NCCO` [IV] as the compound, how does the “solubility in water” value [11] read?
Its value is “high solubility”.

With `CN(CCO)c1ccc(NCCO)c([N+](=O)[O-])c1` [VI] as the compound, how does the “mutagenic effect in Ames test” value [12] read?
The value was “mutagenic effect”.

Which solubility in water [11, 14] does the source give for `CNc1ccc(N(CCO)CCO)cc1[N+](=O)[O-]` [V] here?
Its solubility in water is “about 0.5%”.

And the level of toxicity [13]?
Its level of toxicity is “possibly unacceptable”.
